From paper PMC6169518 (Environmental science & technology, 2016)
Where “and” joins values, the source holds several entries; their conditions need not be identical. Identical values can stand only once.

Experiments:
[1] = tested on: recombinant human CYPs; assay: Oxidation of FLC by a panel of human recombinant CYP isozymes; assay type: in vitro ADME; conditions: 50 nM recombinant human CYPs, 60 min
[2] = Quantification of FLC in mouse serum after single oral administration; assay type: in vivo; conditions: mice
[3] = 24-h excretion of unchanged FLC in mouse urine, feces and bile; assay type: in vivo; conditions: mice, oral, 0-24 h
[4] = tested on: microsomal GST in human liver microsomes (HLM); assay: Kinetic analysis of GSH conjugation; assay type: in vitro ADME
[5] = tested on: microsomal GST in mouse liver microsomes (MLM); assay: Kinetic analysis of GSH conjugation; assay type: in vitro ADME
[6] = tested on: cytosolic GST in human liver cytosols (HLC); assay: Kinetic analysis of GSH conjugation; assay type: in vitro ADME; conditions: FLC-SG formation, Michaelis-Menten
[7] = tested on: cytosolic GST in mouse liver cytosols (MLC); assay: Kinetic analysis of GSH conjugation; assay type: in vitro ADME; conditions: FLC-SG formation, Michaelis-Menten
[8] = tested on: mice; assay: Toxicity of FLC in mice fed diet containing 0.5% FLC for 10 days; assay type: in vivo; conditions: diet containing 0.5% FLC vs control diet
[9] = rats and rabbits; cited from earlier work
[10] = tested on: Chinese Hamster Ovary K1 (CHO-K1) cells; conditions: cited from earlier work
[11] = tested on: rats; conditions: 45 and 90 days of dosing and last recovery day; cited from earlier work
[12] = tested on: Human liver microsomes (HLM); assay: Human liver microsome incubation of FLC; conditions: 60 min
[13] = tested on: glutathione S-transferase (GST)
[14] = HLM, FLC-SG formation, Michaelis-Menten
[15] = MLM, FLC-SG formation, Michaelis-Menten

## O=C1C(Cl)C(CCl)C(O)N1c1cccc(C(F)(F)F)c1 (stereo not shown) [M5–1]
[1]
  CYP isozymes catalysing formation of the metabolite from FLC: CYP1A1, 1A2, and 3A4

## O=C1C(Cl)C(CCl)C(O)N1c1cccc(C(F)(F)F)c1 (stereo not shown) [M5–2]
[1]
  CYP isozymes catalysing formation of the metabolite from FLC: CYP1A1, 1A2, and 3A4

## O=C1C(Cl)C(CCl)CN1c1cccc(C(F)(F)F)c1 (racemic) [FLC, (3RS,4RS;3RS,4SR)-3-chloro-4-chloromethyl-1-(α,α,α-tri-fluoro-m-tolyl)-2-pyrrolidone]
[2]; high dose group (50 mg/kg oral), 4 h post-dose
  concentration of FLC in serum: 8020 ± 2810 nM
[2]; high dose group (50 mg/kg oral), 24 h post-dose
  concentration of FLC in serum: 285 ± 76 nM
[2]; low dose group (5 mg/kg oral), 4 h post-dose
  concentration of FLC in serum: 941 ± 220 nM
[2]; low dose group (5 mg/kg oral), 24 h post-dose
  concentration of FLC in serum: 53 ± 25 nM
[3]; bile
  24-h excretion of FLC in bile: undetectable
[3]; feces
  24-h excretion rate of FLC in feces: 1.21−1.40%
[4]; HLM vs HLC
  maximum clearance (Vmax/Km) of GSH conjugation, HLM over HLC: approximately 5.5 fold
[4]; [14]
  Km: 374 µM
  Vmax: 5.63 pmol·min^−1·mg protein^−1
[5]; MLM vs MLC
  maximum clearance (Vmax/Km) of GSH conjugation, MLM over MLC: approximately 11.2 fold
[5]; [15]
  Km: 367 µM
  Vmax: 9.5 pmol·min^−1·mg protein^−1 and 9.50 pmol·min^−1·mg protein^−1
[6]
  Km: 148 µM
  Vmax: 0.404 pmol·min^−1·mg protein^−1
[7]
  Vmax: 4.65 pmol·min^−1·mg protein^−1
[8]
  Alanine transaminase (ALT): elevated significantly
[8]; hepatic
  triglycerides: slightly increased
[8]; liver
  aqueous peroxide: slightly increased
[9]
  excretion rate of unchanged FLC: less than 1.5 % of the applied dose
[10]
  DNA damage: induce single-strand DNA breaks
[11]
  histopathological observations: testis and epididymis lesions were consistently observed
[12]; HLM supplemented with NADPH
  parent compound consumed: Approximately 30%
[12]; coincubation with GSH, NADPH and HLM
  more consumption of FLC: 40%

## O=C1C(Cl)C(CO)CN1c1cccc(C(F)(F)F)c1 (stereo not shown) [M3]
[1]
  CYP isozymes catalysing formation of the metabolite from FLC: CYP1A1, 1A2, 2C8, 2C9, 2E1, and 3A4

## N[C@@H](CCC(=O)N[C@@H](CSC1C(=O)N(c2cccc(C(F)(F)F)c2)CC1CCl)C(=O)NCC(=O)O)C(=O)O (stereo partly shown) [M13]
[13]; buffer with GSH, without microsomes or cytosols
  M13 detected in buffer: trace amount
[13]; microsomes vs cytosols, with GSH
  formation of M13 in microsomes relative to cytosols: more than 2 fold
